Results taken from the METLIN SMRT retention time set (Domingo-Almenara et al. 2019).

Assay: gradient 5% acetonitrile 3 min, to 50% in 2 min, to 85% in 15 min, held 3 min, 100 µL/min
Conditions: column: Zorbax Extend-C18 2.1 x 50 mm; eluents: water / acetonitrile, 0.1% formic acid
Procedure, shortened: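 The mobile phases were water and acetonitrile, each with 0.1% formic acid, pumped at 100 μL/min through a Zorbax Extend-C18 column (2.1 × 50 mm, 1.8 μm). Pure standards were injected as mixtures of ~100 molecules and detected by a quadrupole time-of-flight mass spectrometer in positive and negative ionization mode. Retention time came from computationally picked adduct peaks, each inspected by hand.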

SMILES | RP-LC retention time [s]
CCN(CC)c1ccc(-c2noc(CN3CCN(c4ccccn4)CC3)n2)cn1 | 575
COc1cccc(-c2cn3c(C(=O)Nc4ncccc4C)csc3n2)c1 | 732
CCc1nc(-c2csc(S(=O)(=O)N3CCCC(C(=O)N4CCOCC4)C3)c2)no1 (stereo not drawn) | 796
CCc1ccc(NC(=O)Cn2c(N3CCOCC3)nc(CC)cc2=O)cc1 | 747
CCN1c2cc(Cl)ccc2C(=O)NC12CCN(C(=O)NCc1ccc(C)cc1)CC2 | 888
CCc1cc(=O)n(CC(=O)Nc2ccccc2)c(N2CCOCC2)n1 | 687
Cc1cccc(C)c1NC(=O)Cn1nc2n(c1=O)CCCC2 | 632
COc1cc(C(=O)Nc2nc3c(s2)CCc2ccccc2-3)cc(OC)c1OC | 1110
CCOC(=O)c1sc2nc(C)cc(C)c2c1N(C(C)=O)C(C)=O | 860
COc1ccc(-c2nc3cnccn3c2Nc2ccc(C)cc2C)cc1OC | 871
COC(=O)C(C)n1nc2nc(Nc3ccc(C)c(F)c3)cc(C)n2c1=O (stereo not drawn) | 1100
COC(=O)c1c(NC(C)c2cccc(OC)c2)c2cccc(Cl)c2[nH]c1=O (stereo not drawn) | 843
O=C(NC1CCCC1)C1CCN(S(=O)(=O)c2cc(C(=O)N3CCCC3)cs2)CC1 | 644
CC(C)Cn1cc(CCNS(=O)(=O)Cc2ccc(Cl)cc2)c2cccnc21 | 986
Cc1ccc(NC(=O)C2CC(=O)N(c3n[nH]c4cccc(F)c34)C2)cc1 (stereo not drawn) | 708
Cc1oc(-c2[nH]ncc2C(=O)N2CCCCC2)cc1S(=O)(=O)Nc1ccc(F)c(F)c1 | 780
CC(C)NC(=O)N1CCCC1c1nc(-c2cccc(Cl)c2)no1 (stereo not drawn) | 906
COc1cccc(C#N)c1OCC(N)=O | 592
COc1ccc(NS(=O)(=O)c2c(C)nn(-c3ccc(-c4ccccc4)nn3)c2C)cc1OC | 895
COc1ccc(N2CC(c3noc(-c4cc(OC)c(OC)c(OC)c4)n3)CC2=O)cc1OC (stereo not drawn) | 813
CCCN1C(=O)c2cc(S(=O)(=O)N3CCOCC3)ccc2Oc2cccnc21 | 926
Cc1nc(Nc2ccccn2)sc1C(=O)N1CCSCC1 | 703
CCOC(=O)C(C)Sc1nnc(CNC(=O)c2ccc(OC)cc2)n1C1CCCCC1 (stereo not drawn) | 805
CCOC(=O)c1c(C)[nH]c(C(=O)N2CCCC(C(=O)NCc3ccc4c(c3)OCO4)C2)c1C (stereo not drawn) | 770
COCCNc1c(-c2ccccc2)nc2sc(C(=O)NC(C)C)c(C)n12 | 749

SMILES | RP-LC retention time [s]
COc1ccc(Cn2nnc(C(=O)N3CCSCC3)c2-n2cccc2)cc1 | 884
CCc1cccc(NC(=O)C2(Cc3ccccc3)CCCCC(=O)N2)c1 (stereo not drawn) | 931
CC(C)Cn1c(=O)c2ccccc2n(Cc2nc(-c3cccc(Br)c3)no2)c1=O | 1290
COc1ccccc1Cc1nc(-c2ccccc2)nn(C2OC(COC(C)=O)C(OC(C)=O)C(OC(C)=O)C2OC(C)=O)c1=S (stereo not drawn) | 1190
CCC1CN2C=NC(N3CCN(C(=O)Nc4ccc(OC)cc4C)CC3)=CC2=N1 (stereo not drawn) | 612
CCOC(=O)c1c(C)oc2nc(C)nc(N3CCN(c4ccccc4F)CC3)c12 | 1210
CC(C)c1ccc(N2C(=O)C3N=NN(Cc4nc(-c5ccc(Br)cc5)no4)C3C2=O)cc1 (stereo not drawn) | 1220
Cc1cccc(N2C(=O)CN(CCC(C)C)[C@H]3CS(=O)(=O)C[C@H]32)c1 | 811
CCOc1cc2c(cc1OCC)C1C(C(=O)NCc3ccc(C)o3)c3ccccc3C(=O)N1CC2 (stereo not drawn) | 894
Cc1ccc2[nH]cc(CCN3CC(C(=O)Nc4cccc(C)c4C)CC3=O)c2c1 (stereo not drawn) | 820
COC(=O)c1ccc(-c2nc3cnccn3c2Nc2ccccc2C)cc1 | 906
CCN1C(=O)C2CC3(CCN(C(=O)CC(C)C)CC3)CN2C1=O (stereo not drawn) | 692
CCc1noc(NC(C)=O)c1-c1ccc(OC)c(S(=O)(=O)Nc2ccc(C)cc2Cl)c1 | 894
CCCNc1cc(N2CCC(CCC(=O)NCC3CC3)CC2)ncn1 | 560
COC(=O)c1c(-c2ccc(Cl)cc2)noc1NCCCN1CCOCC1 | 667
CC1CCN(S(=O)(=O)c2ccccc2-c2nc(-c3ccccc3)no2)CC1 | 1200
CCN(CC)S(=O)(=O)c1ccc2c(c1)N(CC(=O)NCCc1cnc[nH]1)C(=O)C1CCCCN21 (stereo not drawn) | 655
COc1ccc(OC)c(NC(=O)C(=O)c2ccc[nH]2)c1 | 909
COc1ccc(CNC(=O)N2CCC3(C2)C(=O)N(C)c2ccccc23)cc1 (stereo not drawn) | 734
CC(C)CCNS(=O)(=O)c1ccc(-c2nc(C(C)C)cs2)s1 | 1260
O=C(O)C(Cc1ccccc1)NS(=O)(=O)c1ccc(Cl)c(C(F)(F)F)c1 (stereo not drawn) | 887
Cc1oc(-c2ccccc2)nc1Cn1nnc(C(=O)Nc2cc(F)ccc2F)c1C | 1220
CCOC(=O)N1CCN(c2ncc(S(=O)(=O)c3ccc(C)c(C)c3)c(N)n2)CC1 | 891
O=C(Cn1cc(S(=O)(=O)N2CCCCC2)ccc1=O)N1CCCc2ccccc21 | 846
COc1cccc(-n2ccn3cc(-c4cccc(Cl)c4)nc3c2=O)c1 | 837

Further lines, results first:

RP-LC retention time [s] | SMILES
812 | O=C(NCCc1csc(-c2ccccc2)n1)[C@H]1CCCN1C(=O)c1ccc(F)cc1
641 | CC(=O)N1CCN(S(=O)(=O)c2ccc3c(c2)OCCCO3)CC1
1030 | CN(Cc1ccccc1)C(=O)CSc1nnc(-c2ccc(Cl)cc2)o1
843 | CCc1nc(-c2cc(S(=O)(=O)NCC(=O)NC3CCCC3)c(C)s2)no1
885 | Cc1ccccc1-c1nnc(COc2ccc(NC(=O)C3CCC3)cc2)o1
613 | CCC(=O)N1CCc2cc(C(N)=O)ccc21
836 | COc1cc2c(C(=O)Oc3cccnc3)cn(-c3ccccc3)c(=O)c2cc1OC
1020 | O=C(CN1CCCCC1c1nc(-c2ccc(F)cc2)no1)NCc1cccs1 (stereo not drawn)
897 | Cc1nnc(-c2cc(S(=O)(=O)NC3CCCCCCC3)c(C)n2C)o1
818 | CCS(=O)(=O)N1CC(=O)N(c2ccc(F)cc2C)C(C)(C(=O)NCc2ccccc2)C1 (stereo not drawn)
1170 | CSc1ccc(-c2noc(Cc3nnc(-c4cccc(Br)c4)o3)n2)cc1
998 | Cc1ccc2ncn(C3CCN(S(=O)(=O)c4ccc(C)c(C)c4)CC3)c(=O)c2c1
790 | Cn1ncc2c(N3CCCC3)nc(C(=O)NCc3ccc(F)cc3)nc21
642 | COc1ccc(Cl)cc1NC(=O)Cn1ncc2c(N3CCN(c4ccccn4)CC3)ncnc21
723 | COc1ccccc1NC(=O)NC(C(=O)N1CCc2ccccc21)C(C)C (stereo not drawn)
1090 | O=C(c1noc2ccc(S(=O)(=O)N3CCCc4ccccc43)cc12)N1CCCCC1
709 | O=C(c1nnc(-c2csc(S(=O)(=O)N3CCN(c4ccccn4)CC3)c2)o1)N1CCCCC1
1090 | Cc1oc(-c2ccccc2)nc1Cc1noc(Cc2ccc(F)cc2)n1
929 | O=C(C1CCC1)N1CCc2sc(S(=O)(=O)Nc3ccc(Cl)cc3)cc2C1

RP-LC retention time [s] | SMILES
870 | COc1ccc2[nH]c(C)c(CCNS(=O)(=O)c3cc(OC)c(C)cc3OC)c2c1
685 | COc1ccc(NC(=O)Cn2c(C(C)C)nc3c(c2=O)CN(Cc2ccccc2)CC3)cc1
674 | Cc1nnc(C2CCCCCN2C(=O)CCc2c(C)noc2C)o1 (stereo not drawn)
1040 | CCc1ccccc1NC(=O)N1C[C@H](c2nc(-c3ccccc3)no2)[C@@H](C)C1
903 | COCCCNC(=O)C1(C)Cn2nc(-c3ccccc3)cc2C(=O)N1Cc1cc(OC)ccc1OC (stereo not drawn)
821 | Cc1ccc(NC(=O)NC2CCN(c3ccccc3)C2=O)cc1 (stereo not drawn)
566 | Cc1cccc(CC(=O)NCC2CCN(Cc3ccccc3)CC2)c1
594 | Cc1cnc(C2CC2)n1CCNC(=O)C1CC(=O)N(C2CCCCC2)C1 (stereo not drawn)
858 | O=C(NCC1CCCO1)C1CCN(S(=O)(=O)c2cc(-c3noc(C4CCC4)n3)cs2)CC1 (stereo not drawn)
681 | Cc1ccc(Oc2cccc(C(=O)NCc3ccc(F)cc3)c2)nn1
961 | CSc1cccc(N2C=C(C#N)S(=O)(=O)c3ccc(Cl)cc32)c1
733 | Cc1cc(N(C)C)nc(N2CCN(S(=O)(=O)c3ccc(Br)cc3)CC2)n1
643 | Cc1ccccc1Cc1c(C)nc2nc(SCC(=O)NCCCN3CCOCC3)nn2c1C
585 | CN(C)c1ncccc1NC(=O)c1cccc(C#N)c1
651 | Cc1nnc(-c2ccc3ccn(CC(=O)N4CCN(Cc5ccc6c(c5)OCO6)CC4)c3c2)o1
586 | OC[C@@H]1CN(Cc2cn[nH]c2-c2ccc(F)cc2)C[C@H]1c1ccccn1
835 | Cc1ccc(NC(=O)Cn2c(C)nc3onc(C)c3c2=O)c(Cl)c1
898 | Cc1[nH]c(-c2ccccc2)cc1C(=O)NC1CCCCC1
943 | COC(=O)c1ccc2c(=O)n(Cc3ccc(OC)cc3)c(N3CCOCC3)nc2c1
